The values that follow come from US9783573B2, “IAP antagonists” (BRISTOL-MYERS SQUIBB COMPANY, priority 2012, dated 2017).

Each structure is given as a SMILES string.

What all share (type): binding
One assay addresses His-BIR3 (241-356, XIAP) (Homo sapiens (Human), UniProt P98170). Kind of assay: XIAP-BIR3/SMAC Homogeneous Time Resolved Fluorescence (HTRF) Assay. To be noted: fluorescein labeled SMAC peptide. As to the method: B. XIAP-BIR3/SMAC Homogeneous Time Resolved Fluorescence (HTRF) Assay
(§1) Assays were performed in black, flat-bottom, 384-well plates.
Background: Time-resolved FRET reads energy transfer from a long-lived donor to a nearby acceptor.

Assay [1] has as its target His-BIR2-3 (125-356, C202A/C213G, XIAP) (Homo sapiens (Human), UniProt P98170, C202A/C213G). Kind of assay: XIAP-BIR2-3 Dimeric SMAC Peptide Homogeneous Time Resolved Fluorescence (HTRF) Assay. The following applies: fluorescein labeled dimeric SMAC peptide. As to the method:
D. XIAP-BIR2-3 Dimeric SMAC Peptide Homogeneous Time Resolved Fluorescence (HTRF) Assay
as §1

For assay [2], the target named is N-His-Tb-BIR3 (241-356, XIAP) (Homo sapiens (Human), UniProt P98170). Kind of assay: biochemical. The following applies: fluoresceinated modified SMAC peptide, fluorescence polarization; read-out: XIAP BIR3 FPA IC50. A general note: Fluorescence polarisation rises when a labelled molecule tumbles more slowly, as on binding a larger partner.

With `CN[C@@H](C)C(=O)N[C@H](C(=O)N1C[C@@H](NC(=O)c2ccc(C(=O)Nc3ccc4c(c3)CN(C(=O)[C@@H](NC(=O)[C@H](C)NC)C(C)(C)SCC(=O)OC)[C@H](C(=O)N[C@@H]3CCCc5ccccc53)C4)cc2)C[C@H]1C(=O)N[C@@H]1CCCc2ccccc21)C(C)(C)C` [Example 56, Methyl 2-(((R)-4-((S)-7-(4-(((3S,5S)-1-((S)-3,3-dimethyl-2-((S)-2-(methylamino)propanamido)butanoyl)-5-(((R)-1,2,3,4-tetrahydronaphthalen-1-yl)carbamoyl)pyrrolidin-3-yl)carbamoyl)benzamido)-3-(((R)-1,2,3,4-tetrahydronaphthalen-1-yl)carbamoyl)-3,4-dihydroisoquinolin-2(1H)-yl)-2-methyl-3-((S)-2-(methylamino)propanamido)-4-oxobutan-2-yl)thio)acetate], the IC50 against His-BIR3 (241-356, XIAP) came to 17 nM; in assay [1], 12 nM.

Consider `CN[C@@H](C)C(=O)N[C@H](C(=O)N1Cc2cc(NC(=O)c3ccc(C(=O)N[C@H]4C[C@@H](C(=O)N[C@@H]5CCCc6ccccc65)N(C(=O)[C@@H](NC(=O)[C@H](C)NC)C(C)(C)C)C4)cc3)ccc2C[C@H]1C(=O)N[C@@H](COC)c1ccccc1)C(C)(C)C` [Example 13, N^1-((S)-2-((S)-3,3-Dimethyl-2-((S)-2-(methylamino)propanamido)butanoyl)-3-(((R)-2-methoxy-1-phenylethyl)carbamoyl)-1,2,3,4-tetrahydroisoquinolin-7-yl)-N^4-((3S,5S)-1-((S)-3,3-dimethyl-2-((S)-2-(methylamino)propanamido)butanoyl)-5-(((R)-1,2,3,4-tetrahydronaphthalen-1-yl)carbamoyl)pyrrolidin-3-yl)terephthalamide], for which the concentration for half-maximal inhibition (IC50) against His-BIR3 (241-356, XIAP) was determined as 12 nM; in assay [1], 11 nM.

For the compound `CN[C@@H](C)C(=O)N[C@H](C(=O)N1Cc2cc(NC(=O)c3ccc4c(ccn4C(=O)N[C@H]4C[C@@H](C(=O)N[C@@H]5CCCc6ccccc65)N(C(=O)[C@@H](NC(=O)[C@H](C)NC)C(C)(C)C)C4)c3)ccc2C[C@H]1C(=O)N[C@@H]1CCCc2ccccc21)C(C)(C)C` [Example 49, N^5—((S)-2-((S)-3,3-Dimethyl-2-((S)-2-(methylamino)propanamido)butanoyl)-3-(((R)-1,2,3,4-tetrahydronaphthalen-1-yl)carbamoyl)-1,2,3,4-tetrahydroisoquinolin-7-yl)-N^1-((3S,5S)-1-((S)-3,3-dimethyl-2-((S)-2-(methylamino)propanamido)butanoyl)-5-(((R)-1,2,3,4-tetrahydronaphthalen-1-yl)carbamoyl)pyrrolidin-3-yl)-1H-indole-1,5-dicarboxamide], the concentration for half-maximal inhibition (IC50) on His-BIR3 (241-356, XIAP) is 51 nM; in assay [1], 22 nM.

As for `CN[C@@H](C)C(=O)N[C@H](C(=O)N1C[C@@H](NC(=O)c2ccc(C(=O)Nc3ccc4c(c3)CN(C(=O)[C@@H](NC(=O)[C@H](C)NC)C(C)(C)SCCO)[C@H](C(=O)N[C@@H]3CCCc5ccccc53)C4)cc2)C[C@H]1C(=O)N[C@@H]1CCCc2ccccc21)C(C)(C)C` [Example 67, N^1-((3S,5S)-1-((S)-3,3-Dimethyl-2-((S)-2-(methylamino)propanamido)butanoyl)-5-(((R)-1,2,3,4-tetrahydronaphthalen-1-yl)carbamoyl)pyrrolidin-3-yl)-N^4-((S)-2-((R)-3-((2-hydroxyethyl)thio)-3-methyl-2-((S)-2-(methylamino)propanamido)butanoyl)-3-(((R)-1,2,3,4-tetrahydronaphthalen-1-yl)carbamoyl)-1,2,3,4-tetrahydroisoquinolin-7-yl)terephthalamide], the half-maximal inhibitory concentration (IC50) came to 14 nM at His-BIR3 (241-356, XIAP) and 6 nM in assay [1].

Turning to `CN[C@@H](C)C(=O)N[C@H](C(=O)N1Cc2ccc(NC(=O)c3ccc(C(=O)N[C@H]4C[C@@H](C(=O)N[C@@H]5CCCc6ccccc65)N(C(=O)[C@@H](NC(=O)[C@H](C)NC)C(C)(C)C)C4)cc3)cc2C[C@H]1C(=O)N[C@@H]1CCCc2ccccc21)C(C)(C)C` [Example 2, N^1—((S)-2-((S)-3,3-Dimethyl-2-((S)-2-(methylamino)propanamido)butanoyl)-3-(((R)-1,2,3,4-tetrahydronaphthalen-1-yl)carbamoyl)-1,2,3,4-tetrahydroisoquinolin-6-yl)-N^4-((3S,5S)-1-((S)-3,3-dimethyl-2-((S)-2-(methylamino)propanamido)butanoyl)-5-(((R)-1,2,3,4-tetrahydronaphthalen-1-yl)carbamoyl)pyrrolidin-3-yl)terephthalamide], in assay [1], the IC50 was 4 nM.

For the compound `CN[C@@H](C)C(=O)N[C@H](C(=O)[C@@H]1C[C@H](NC(=O)[C@@H](CCC(F)(F)F)[C@@H](CCC(F)(F)F)C(=O)Nc2ccc3c(c2)CN(C(=O)[C@@H](NC(=O)[C@H](C)NC)C(C)(C)C)[C@H](C(=O)N[C@@H]2CCCc4ccccc42)C3)CN1C(=O)N[C@@H]1CCCc2ccccc21)C(C)(C)C` [Example 37, (2S,3R)-N^1-((3S,5S)-5-((S)-3,3-dimethyl-2-((S)-2-(methylamino)propanamido)butanoyl)-1-(((R)-1,2,3,4-tetrahydronaphthalen-1-yl)carbamoyl)pyrrolidin-3-yl)-N^4-((S)-2-((S)-3,3-dimethyl-2-((S)-2-(methylamino)propanamido)butanoyl)-3-(((R)-1,2,3,4-tetrahydronaphthalen-1-yl)carbamoyl)-1,2,3,4-tetrahydroisoquinolin-7-yl)-2,3-bis(3,3,3-trifluoropropyl) succinamide], the half-maximal inhibitory concentration (IC50) in assay [2] was determined as 110 nM.

Turning to `CN[C@@H](C)C(=O)N[C@H](C(=O)N1Cc2cc(C(=O)NC(C)(C)C(=O)N[C@H]3C[C@@H](C(=O)N[C@@H]4CCCc5ccccc54)N(C(=O)[C@@H](NC(=O)[C@H](C)NC)C(C)(C)C)C3)ccc2C[C@H]1C(=O)N[C@@H]1CCCc2ccccc21)C(C)(C)C` [Example 29, (S)-2-((S)-3,3-Dimethyl-2-((S)-2-(methylamino)propanamido)butanoyl)-N7-(1-(((3S,5S)-1-((S)-3,3-dimethyl-2-((S)-2-(methylamino)propanamido)butanoyl)-5-(((R)-1,2,3,4-tetrahydronaphthalen-1-yl)carbamoyl)pyrrolidin-3-yl)amino)-2-methyl-1-oxopropan-2-yl)-N3-((R)-1,2,3,4-tetrahydronaphthalen-1-yl)-1,2,3,4-tetrahydroisoquinoline-3,7-dicarboxamide], the IC50 in assay [2] is 61 nM.

`CN[C@@H](C)C(=O)N[C@H](C(=O)N1Cc2cc(OC(=O)c3ccc(C(=O)N[C@H]4C[C@@H](C(=O)N[C@@H]5CCCc6ccccc65)N(C(=O)[C@@H](NC(=O)[C@H](C)NC)C(C)(C)C)C4)cc3)ccc2C[C@H]1C(=O)N[C@@H]1CCCc2ccccc21)C(C)(C)C` [Example 46, (S)-2-((S)-3,3-Dimethyl-2-((S)-2-(methylamino)propanamido)butanoyl)-3-(((R)-1,2,3,4-tetrahydronaphthalen-1-yl)carbamoyl)-1,2,3,4-tetrahydroisoquinolin-7-yl 4-(((3S,5S)-1-((S)-3,3-dimethyl-2-((S)-2-(methylamino)propanamido)butanoyl)-5-(((R)-1,2,3,4-tetrahydronaphthalen-1-yl)carbamoyl)pyrrolidin-3-yl)carbamoyl)benzoate]: the IC50 in assay [2] came out at 69 nM.

For `CN[C@@H](C)C(=O)N[C@H](C(=O)N1Cc2cc(N(C(=O)C3(C(N)=O)CC3)[C@H]3C[C@@H](C(=O)N[C@@H]4CCCc5ccccc54)N(C(=O)[C@@H](NC(=O)[C@H](C)NC)C(C)(C)C)C3)ccc2C[C@H]1C(=O)N[C@@H]1CCCc2ccccc21)C(C)(C)C` [Example 4, N-((S)-2-((S)-3,3-Dimethyl-2-((S)-2-(methylamino)propanamido)butanoyl)-3-(((R)-1,2,3,4-tetrahydronaphthalen-1-yl)carbamoyl)-1,2,3,4-tetrahydroisoquinolin-7-yl)-N-((3S,5S)-1-((S)-3,3-dimethyl-2-((S)-2-(methylamino)propanamido)butanoyl)-5-(((R)-1,2,3,4-tetrahydronaphthalen-1-yl)carbamoyl)pyrrolidin-3-yl)cyclopropane-1,1-dicarboxamide], the IC50 in assay [2] was found to be 53 nM.

In the case of `CN[C@@H](C)C(=O)N[C@H](C(=O)N1CC[C@@H](OCc2ccc(C(=O)N[C@H]3C[C@@H](C(=O)N[C@@H]4CCCc5ccccc54)N(C(=O)[C@@H](NC(=O)[C@H](C)NC)C(C)(C)C)C3)cc2)C[C@H]1C(=O)N[C@@H]1CCCc2ccccc21)C(C)(C)C` [Example 30, (2S,4R)-1-((S)-3,3-Dimethyl-2-((S)-2-(methylamino)propanamido)butanoyl)-4-((4-(((3S,5S)-1-((S)-3,3-dimethyl-2-((S)-2-(methylamino)propanamido)butanoyl)-5-(((R)-1,2,3,4-tetrahydronaphthalen-1-yl)carbamoyl)pyrrolidin-3-yl)carbamoyl)benzyl)oxy)-N—((R)-1,2,3,4-tetrahydronaphthalen-1-yl)piperidine-2-carboxamide], the IC50 in assay [2] was 38 nM.

For the compound `CCN[C@@H](C)C(=O)N[C@H](C(=O)N1Cc2cc(NC(=O)c3ccc(C(=O)N[C@H]4C[C@@H](C(=O)N[C@@H]5CCCc6ccccc65)N(C(=O)[C@@H](NC(=O)[C@H](C)NC)C(C)(C)C)C4)cc3)ccc2C[C@H]1C(=O)N[C@@H]1CCCc2ccccc21)C(C)(C)C` [Example 34, N^1-((3S,5S)-1-((S)-3,3-dimethyl-2-((S)-2-(methylamino)propanamido)butanoyl)-5-(((R)-1,2,3,4-tetrahydronaphthalen-1-yl)carbamoyl)pyrrolidin-3-yl)-N^4-((S)-2-((S)-2-((S)-2-(ethylamino)propanamido)-3,3-dimethylbutanoyl)-3-(((R)-1,2,3,4-tetrahydronaphthalen-1-yl)carbamoyl)-1,2,3,4-tetrahydroisoquinolin-7-yl)terephthalamide], the IC50 in assay [2] came to 150 nM.

What is called IC50 is the midpoint of a concentration-inhibition curve.
